Where “and” joins values, the source holds several entries; their conditions need not be identical. Identical values can stand only once.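 These data come from cells grown in 96-well plates and exposed to compound for 48 hours at five concentrations. The concentration for 50% growth inhibition is given as GI50. TGI: total growth inhibition.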

The subject of one test is NCI-H23 lung. The test is described as follows: NCI-60 cell line screen, 48 h.
With `CC1(Cl)C(=O)NC(=O)N(C2CC(N=[N+]=[N-])C(CO)O2)C1N=[N+]=[N-]` (stereo not given), the TGI was over 100 µM.
For the compound `COc1ccc2ccc3c(c2c1)CN1CCc2cc(OC)c(OC)cc2C1C3` (stereo not given), the TGI is over 100 µM.
Still for that read-out and setting: the same measure for `OCCC1(O)CCC(O)CC1` (stereo not given): over 100 µM; for `CCCCNC1=C(C(=O)OCC)C(=O)CO1`: over 100 µM.
As for `CC(C)CC(=O)[O-].CC(C)CC(=O)[O-].N.N.N.N.[Co+3].[O-][Cl+3]([O-])([O-])[O-]`, the GI50 was over 100 µM and the TGI was over 100 µM.
`COc1cc(C2c3cc4c(cc3C(NCC(O)CO)C3COC(=O)[C@H]23)OCO4)cc(OC)c1OC` (stereo not given in full) registered a TGI of 0.797 µM.
Same read-out and setting: the same measure for `COC(=O)CC(=O)C[P+](c1ccccc1)(c1ccccc1)c1ccccc1`: over 218 µM; for `CCCCN(CCCC)C(=O)C(=O)C(C#N)c1ccc(C)cc1` (stereo not given): over 100 µM; for `Cc1ccc(S(=O)(=O)C(CC(=O)N2CCCC2)C(=O)c2ccccc2)cc1` (stereo not given): over 100 µM.
Regarding `CC1(C)CC(/C=C2/OC(=O)c3ccccc32)=C(C#N)C(=O)O1`, the TGI was over 100 µM.
Same read-out and setting: for `Cc1nc2c(nc1Cl)nc(Oc1ccc(Cl)cc1)c1ccccc12` the value was 85 µM.
As to `CC(=O)Nc1ccccc1Sc1ccccc1`, the TGI was over 100 µM.
On to `COC(=O)C[C@H]1CCC2(OCCO2)[C@]1(C)C(=O)OC`, for which the TGI was over 100 µM.
Still for that read-out and setting: the same measure for `CCCCCCCCCC[C@@H](O)[C@@H]1CC[C@H]([C@H]2CC[C@@H]([C@@H](O)CCCCCCCCCC[C@H]3CC(CC(C)=O)C(=O)O3)O2)O1` (stereo not given in full): 16.4 µM; for `CCOc1ccc2c(c1)[n+]([O-])c(S(=O)(=O)c1ccc(C)cc1)c(N)[n+]2[O-]`: over 100 µM; for `CC12CC[C@@H](C(C)(C)O)C1[C@@H](O)CC1(C)C2CCC2[C@@]3(C)CC[C@H](O)C(C)(C)C3C(O)C[C@]21C` (stereo not given in full): 39.2 µM.
Take `CCOC(=O)NC(=O)c1cn(C2OC(COC(=O)CCCCCCCCC(=O)OCC3OC(n4cc(C(=O)NC(=O)OCC)c(=O)[nH]c4=O)C(O)C3O)C(O)C2O)c(=O)[nH]c1=O` (stereo not given): the TGI is over 100 µM.
`Cc1ccc(C)c(NC(=O)CC/C(=N\NC(=O)C(=O)NN)C(C)C(=O)c2ccc(O)cc2)c1` (stereo not given) displayed a TGI of over 100 µM.
On the same count and under the same terms, the same measure for `N=C1CSC2=NC3=C(CCC/C3=C\c3ccccc3)C(c3ccccc3)N12` (stereo not given): 15.6 µM; for `COc1ccc(CNc2cc(OC)c(OC)c(OC)c2)cc1`: over 55.9 µM; for `COc1ccccc1C1C(C(=O)Nc2ccccc2)=C(C)NC(C)=C1C(=O)Nc1ccccc1`: over 100 µM.
Still for that read-out and setting: for `OCc1ccc2[n+](c1)CCC1c3ccccc3NC21` (stereo not given) the value was over 300 µM; for `CCCCCCCCCCCC(=O)CC(=O)c1c(O)cccc1O`, 41.9 µM.
Still for that read-out and setting: for `CN(C(=O)C12C3C4C1C1C2C3C41C(=O)C(C)(C)C)C(C)(C)C` (stereo not given) the value was over 100 µM; for `Cc1cc2c(cc1C)[n+](=O)c(C(=O)CC(=O)C(=O)Nc1c(C(C)C)cccc1C(C)C)c(C)n2[O-]`, over 100 µM.
In turn, `COc1ccc2cc1Oc1ccc(cc1)CC1c3cc(c(OC)cc3CCN1C)Oc1c3c(cc4c1C(C2)N(C)CC4)OCO3` (stereo not given) returned a TGI of 31.9 µM.
On the same count and under the same terms, for `COc1ccc(OC)c(NC(=O)C(=O)C(C(C)=O)c2nc3ccc(Cl)cc3[nH]c2=O)c1` (stereo not given) the value was over 50 µM; for `N#CC(C(=N/O)/C(=N/O)C(C#N)c1ccc(Cl)cc1)c1ccc(Cl)cc1` (stereo not given), over 100 µM.

Another test deals with NCI-H226 lung. The test is described as follows: NCI-60 cell line screen, 48 h.
As for `COc1ccc2ccc3c(c2c1)CN1CCc2cc(OC)c(OC)cc2C1C3` (stereo not given), the TGI was over 100 µM.
On the same count and under the same terms, the same measure for `OCCC1(O)CCC(O)CC1` (stereo not given): over 100 µM; for `CCCCNC1=C(C(=O)OCC)C(=O)CO1`: over 100 µM; for `COc1cc(C2c3cc4c(cc3C(NCC(O)CO)C3COC(=O)[C@H]23)OCO4)cc(OC)c1OC` (stereo not given in full): 0.655 µM.
The same measure, in the same setting: for `COC(=O)CC(=O)C[P+](c1ccccc1)(c1ccccc1)c1ccccc1` the value was over 218 µM.
For `CCCCN(CCCC)C(=O)C(=O)C(C#N)c1ccc(C)cc1` (stereo not given), the TGI was over 100 µM.
Compound `CC1(C)CC(/C=C2/OC(=O)c3ccccc32)=C(C#N)C(=O)O1` displayed a TGI of over 100 µM.
`Cc1nc2c(nc1Cl)nc(Oc1ccc(Cl)cc1)c1ccccc12` registered a TGI of 79.9 µM.
As to `CC(=O)Nc1ccccc1Sc1ccccc1`, the TGI is over 100 µM.
Consider `CCCCCCCCCC[C@@H](O)[C@@H]1CC[C@H]([C@H]2CC[C@@H]([C@@H](O)CCCCCCCCCC[C@H]3CC(CC(C)=O)C(=O)O3)O2)O1` (stereo not given in full), for which the TGI came to 20.2 µM.
Consider `CCOc1ccc2c(c1)[n+]([O-])c(S(=O)(=O)c1ccc(C)cc1)c(N)[n+]2[O-]`, for which the TGI was over 100 µM.
`CCOC(=O)NC(=O)c1cn(C2OC(COC(=O)CCCCCCCCC(=O)OCC3OC(n4cc(C(=O)NC(=O)OCC)c(=O)[nH]c4=O)C(O)C3O)C(O)C2O)c(=O)[nH]c1=O` (stereo not given): the TGI is over 100 µM.
Still for that read-out and setting: for `Cc1ccc(C)c(NC(=O)CC/C(=N\NC(=O)C(=O)NN)C(C)C(=O)c2ccc(O)cc2)c1` (stereo not given) the value was over 100 µM; for `N=C1CSC2=NC3=C(CCC/C3=C\c3ccccc3)C(c3ccccc3)N12` (stereo not given), 35.1 µM; for `COc1ccc(CNc2cc(OC)c(OC)c(OC)c2)cc1`, over 62.1 µM.
For `COc1ccccc1C1C(C(=O)Nc2ccccc2)=C(C)NC(C)=C1C(=O)Nc1ccccc1`, the TGI is over 100 µM.
For `OCc1ccc2[n+](c1)CCC1c3ccccc3NC21` (stereo not given), the TGI was over 300 µM.
On the same count and under the same terms, for `CCCCCCCCCCCC(=O)CC(=O)c1c(O)cccc1O` the value was 32.1 µM; for `Cc1cc2c(cc1C)[n+](=O)c(C(=O)CC(=O)C(=O)Nc1c(C(C)C)cccc1C(C)C)c(C)n2[O-]`, over 100 µM; for `COc1ccc2cc1Oc1ccc(cc1)CC1c3cc(c(OC)cc3CCN1C)Oc1c3c(cc4c1C(C2)N(C)CC4)OCO3` (stereo not given), 7.45 µM.
On to `COc1ccc(OC)c(NC(=O)C(=O)C(C(C)=O)c2nc3ccc(Cl)cc3[nH]c2=O)c1` (stereo not given), for which the TGI is over 50 µM.
The compound `N#CC(C(=N/O)/C(=N/O)C(C#N)c1ccc(Cl)cc1)c1ccc(Cl)cc1` (stereo not given) displayed a TGI of over 100 µM.

The next test relates to DU-145 prostate. The test is described as follows: NCI-60 cell line screen, 48 h.
Turning to `COc1cccc(-c2cc(=O)c3cc(N(C)C)ccc3[nH]2)c1`, the GI50 was 0.034 µM and 0.0073 µM; the TGI is 0.302 µM and 0.369 µM and 0.8 µM.

The subject of the next test is KM12 colon. The test is described as follows: NCI-60 cell line screen, 48 h.
On to `CC1(Cl)C(=O)NC(=O)N(C2CC(N=[N+]=[N-])C(CO)O2)C1N=[N+]=[N-]` (stereo not given), for which the TGI was over 100 µM.
On the same count and under the same terms, the same measure for `COc1ccc2ccc3c(c2c1)CN1CCc2cc(OC)c(OC)cc2C1C3` (stereo not given): over 100 µM; for `OCCC1(O)CCC(O)CC1` (stereo not given): over 100 µM; for `CCCCNC1=C(C(=O)OCC)C(=O)CO1`: over 100 µM.
As to `CC(C)CC(=O)[O-].CC(C)CC(=O)[O-].N.N.N.N.[Co+3].[O-][Cl+3]([O-])([O-])[O-]`, the GI50 was over 100 µM and the TGI is over 100 µM.
`COc1cc(C2c3cc4c(cc3C(NCC(O)CO)C3COC(=O)[C@H]23)OCO4)cc(OC)c1OC` (stereo not given in full): the TGI is over 100 µM.
